Assay results taken from publication PMC3230241 (Nature biotechnology, 2011).

Molecular target: MRCKα (Homo sapiens, UniProt Q5VT25)
Test: HotSpot radiometric kinase assay, MRCKα
Type: biochemical
Conditions: compound 0.5 μM, 10 μM ATP

Sequence of MRCKα (Q5VT25 1-473): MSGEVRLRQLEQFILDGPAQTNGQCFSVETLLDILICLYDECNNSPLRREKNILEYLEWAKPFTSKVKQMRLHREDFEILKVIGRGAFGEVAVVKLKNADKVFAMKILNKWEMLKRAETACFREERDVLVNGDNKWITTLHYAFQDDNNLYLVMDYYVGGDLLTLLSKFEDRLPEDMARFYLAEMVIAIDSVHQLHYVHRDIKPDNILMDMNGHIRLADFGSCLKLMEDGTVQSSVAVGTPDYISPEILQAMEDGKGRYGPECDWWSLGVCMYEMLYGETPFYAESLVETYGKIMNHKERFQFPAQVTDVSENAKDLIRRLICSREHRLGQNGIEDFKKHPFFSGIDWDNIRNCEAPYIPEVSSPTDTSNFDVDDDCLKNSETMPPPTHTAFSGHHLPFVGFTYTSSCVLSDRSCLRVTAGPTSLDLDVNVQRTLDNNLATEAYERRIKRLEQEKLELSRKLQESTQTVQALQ

`O=C(Nc1cccc(Nc2cc(Nc3cccc(C(F)(F)F)c3)ncn2)c1)C1CC1` [EGFR Inhibitor] was tested, and the “inhibition of MRCKα (next most potent target)” value was 22%.
